According to ChEMBL document CHEMBL1151194, “Synthetic analogues of the microtubule-stabilizing agent (+)-discodermolide: preparation and biological activity” (J Nat Prod, 2004):

How the values were obtained:
A549 = experiment: Cytotoxicity against human A549 cells; type: functional, cell-based
MCF7 = experiment: Cytotoxicity against human MCF7 cells; type: functional, cell-based
Vero = experiment: Cytotoxicity against african green monkey Vero cells; type: cell-based; settings: Chlorocebus sabaeus
[1] = Cytotoxicity against human NCI/ADR cells; type: functional, cell-based; settings: NCI/ADR-RES
PANC-1 = experiment: Cytotoxicity against human PANC1 cells; type: functional, cell-based
P388 = experiment: Cytotoxicity against mouse P388 cells; type: functional, cell-based

Row | Compound | IC50 (A549) | IC50 (MCF7) | IC50 (Vero) | IC50 [1] | IC50 (PANC-1) | IC50 (P388)
1 | C=C/C=C\[C@H](C)[C@H](OC(N)=O)[C@@H](C)[C@H](O)[C@@H](C)C/C(C)=C\[C@H](C)[C@H]1O[C@H](C[C@@H]2OC(=O)[C@H](C)[C@@H](O)[C@H]2C)C=C[C@@H]1C | 1460 nM | 1800 nM | 3.65 µM | 4.4 µM | 3.13 µM | 1000 nM
2 | C=C/C=C\[C@H](C)[C@H](OC(N)=O)[C@@H](C)[C@H](O)[C@@H](C)C/C(C)=C\[C@H](C)[C@@H](O)[C@@H](C)/C=C\[C@@H](O)C[C@@H]1OC(=O)[C@H](C)[C@@H](O)[C@H]1C [DISERMOLIDE] | 15 nM | 2.4 nM | 30 µM | 0.017 µM | 0.049 µM | 33 nM
3 | C=C/C=C\[C@H](C)[C@H](OC(N)=O)[C@@H](C)[C@H](O)[C@H](C)C[C@](C)(O)[C@H]1[C@H](C)[C@@H](O)[C@@H](C)[C@@H]1/C=C/C[C@@H]1OC(=O)[C@H](C)[C@@H](O)[C@H]1C (relative stereo) | > 5000 nM | 7350 nM | 11.4 µM | > 5 µM | > 5 µM | 7650 nM
4 | C=C/C=C\[C@H](C)[C@H](OC(N)=O)[C@@H](C)[C@H](O)[C@@H](C)/C=C(\C)[C@H]1[C@H](C)[C@@H](O)[C@@H](C)[C@@H]1/C=C/C[C@@H]1OC(=O)[C@H](C)[C@@H](O)[C@H]1C | 6640 nM | 2100 nM | 21.9 µM | > 5 µM | 6.57 µM | 2130 nM
5 | C=C/C=C\[C@H](C)[C@H](OC(N)=O)[C@@H](C)[C@H](O)[C@@H](C)CC(=C)[C@H]1[C@H](C)[C@@H](O)[C@@H](C)[C@@H]1/C=C/C[C@@H]1OC(=O)[C@H](C)[C@@H](O)[C@H]1C | 100 nM | 130 nM | 0.69 µM | 3.4 µM | 0.33 µM | 190 nM
6 | C=C/C=C\[C@H](C)[C@H](OC(N)=O)[C@@H](C)[C@H](O)[C@@H](C)C/C(C)=C\[C@H](C)[C@@H](O)[C@@H](C)/C=C\[C@@H](O)C[C@@H]1OC(=O)[C@H](C)[C@@H](O[Si](C)(C)C(C)(C)C)[C@H]1C | 1990 nM | 960 nM | 0.42 µM | 2.8 µM | 2.65 µM | 790 nM
7 | C=C/C=C\[C@H](C)[C@H](OC(N)=O)[C@@H](C)[C@H](O)[C@@H](C)C[C@@](C)(O)[C@H]1[C@H](C)[C@@H](O)[C@@H](C)[C@@H]1/C=C/C[C@@H]1OC(=O)[C@H](C)[C@@H](O)[C@H]1C (mixture of isomers) | 840 nM | 2360 nM | 4.3 µM | > 5 µM | 3.03 µM | 2420 nM
8 | C=C/C=C\[C@H](C)[C@H](OC(N)=O)[C@@H](C)[C@H](O)[C@@H](C)C[C@](C)(O)[C@H]1[C@H](C)[C@@H](O)[C@@H](C)[C@@H]1/C=C/C[C@@H]1OC(=O)[C@H](C)[C@@H](O)[C@H]1C (relative stereo) | 2640 nM | 1730 nM | 16.6 µM | > 5 µM | > 5 µM | 2090 nM
